# Test results as given in publication PMC3390202 (Biochemistry, 2011).
# Biological target: rhodopsin (N2C,D282C and N2C,E113Q,D282C mutants) (Bos taurus, UniProt P02699, N2C/E113Q/D282C)
# Assay: UV-visible absorption
# Format: binding
# Details: covalent; in the dark; inverse agonist chromophore; DDM, Hepes pH 7.5
smiles,measurement,value
CC1=C(/C=C/C(C)=C/C=C\C(C)=C\C=O)C(C)(C)CCC1 [11-cis-retinal],UV-visible absorption; 1D4-Sepharose copurification with transducin,Binding of 11-cis-retinal forces the protein into the inactive state
